Drawing on ChEMBL document CHEMBL3132843, “Discovery of novel inhibitors for human farnesyltransferase (hFTase) via structure-based virtual screening” (Medchemcomm, 2013), this text covers IC50 for 23 molecules.

Where only a bound is given, the exact number is not on record here.

For experiment [1], the target named is Protein farnesyltransferase (Homo sapiens, UniProt P49354+P49356). Description: Inhibition of human FTase using farnesyl pyrophosphate as substrate by fluorescent assay. In kind it is protein-complex assay.
Experiment [2] relates to MCF7. The experiment can be described thus: Cytotoxicity against human MCF7 cells after 48 hrs by MTT assay. In kind it is functional, cell-based. Particulars: MCF7, 48 h. On the technique in general: Tetrazolium dyes change colour on reduction, which living cells bring about.

By IC50 is commonly meant the midpoint of a concentration-inhibition curve. Low values mean inhibition by little substance, high ones a need for much substance. With `COc1cccc(C2C(C(=O)/C=C/c3ccccc3)=C(O)C(=O)N2c2ccccc2)c1` (stereo unspecified), the IC50 in experiment [1] is 1.46 µM; in experiment [2] it was over 100 µM.

For `Cc1cncc(NC(c2cccc(OCc3ccccc3)c2)c2ccc3cccnc3c2O)c1` (stereo unspecified), the IC50 was determined as 0.0489 µM in experiment [1] and 14.3 µM in experiment [2].

For `N#Cc1c(SCc2ccc(C(=O)O)cc2)nc2c(c1-c1ccccc1)CCC2`, the IC50 is 5.6 µM in experiment [1] and over 100 µM in experiment [2].

Take `Cc1c(Cc2ccccc2)sc(CC(=O)CCC(=O)O)c1C(N)=O`: the results for the concentration for half-maximal inhibition (IC50) in experiment [1] and in experiment [2] were 3.52 µM and over 100 µM, respectively.

In the case of `Cc1ccc(Oc2ncccc2NC(=O)CCCC(=O)O)c2c1CCC2`, the IC50 in experiment [1] was 5.4 µM; in experiment [2] it was over 100 µM.

On to `O=C(N/N=C\c1cn(Cc2ccc([N+](=O)[O-])cc2)c2ccccc12)c1cc2ccccc2o1`, for which the IC50 in experiment [1] is 0.14 µM; in experiment [2], over 100 µM.

Turning to `Cc1ccc(OC(=O)c2ccc3c(c2)C(=O)N(c2cccc4ccccc24)C3=O)cc1`, the IC50 in experiment [1] was 0.44 µM; in experiment [2], over 100 µM.

`Cn1cncc1[C@@](N)(c1ccc(Cl)cc1)c1ccc2c(c1)c(-c1cccc(Cl)c1)cc(=O)n2C` [TIPIFARNIB]: the IC50 is 0.003 µM in experiment [1] and 3.08 µM in experiment [2].

Take `Cc1cccc(Oc2ccc(NC(=O)c3ccccc3C(=O)O)cc2)c1C`: the 50% inhibitory concentration (IC50) in experiment [1] was 6.9 µM; in experiment [2], over 100 µM.

For `COc1cc(CNc2ccc(O)cc2)cc(Cl)c1OCc1ccc(Cl)cc1`, the concentration for half-maximal inhibition (IC50) in experiment [1] came to 2.57 µM; in experiment [2] it was 20.5 µM.

Consider `CCOC(=O)c1c(C)oc2c1cc(NS(=O)(=O)c1ccc(C(=O)O)cc1)c1ccccc12`, for which the IC50 stood at 3.89 µM in experiment [1] and 46.7 µM in experiment [2].

Regarding `Cc1ccc(Oc2ncccc2NC(=O)CC(CC(=O)O)c2ccccc2)c2c1CCC2` (stereo unspecified), the IC50 in experiment [1] is 13.3 µM; in experiment [2], over 100 µM.

`Oc1cccc2ccc(/C=C/c3ccccc3OCc3ccccc3Cl)nc12`: the 50% inhibitory concentration (IC50) in experiment [1] was 0.0119 µM; in experiment [2], over 100 µM.

Turning to `O=C(O)c1ccc(/N=[N+](/[O-])c2ccccc2Sc2ccccc2C(=O)O)cc1Sc1ccccc1O`, the figures for the 50% inhibitory concentration (IC50) in experiment [1] and in experiment [2] were 3.22 µM and over 100 µM, respectively.

Take `O=C(O)C1CCCCC1C(=O)Nc1ccc(Oc2ccccc2)cc1` (stereo unspecified): the concentration for half-maximal inhibition (IC50) in experiment [1] was 3.56 µM; in experiment [2], over 100 µM.

On to `CC1=NN(c2ccccc2)C(=O)/C1=C/c1ccccc1OCc1ccc(C(=O)O)cc1`, for which the IC50 in experiment [1] came to 2.58 µM; in experiment [2], 38.9 µM.

Take `COCCN1C(=O)C(O)=C(C(=O)c2ccc(C)cc2)C1c1cccc(Oc2ccccc2)c1` (stereo unspecified): the half-inhibitory concentration (IC50) in experiment [1] was 8.8 µM; in experiment [2], over 100 µM.

`O=C(c1ccccc1)c1ccc(/N=C/c2cc([N+](=O)[O-])ccc2O)cc1`: the values for the half-inhibitory concentration (IC50) in experiment [1] and in experiment [2] were 11 µM and over 100 µM, respectively.

Take `O=C(c1ccc(Cl)cc1)N1N=C(c2c(-c3ccccc3)c3cc(Br)ccc3[nH]c2=O)CC1c1ccco1` (stereo unspecified): the IC50 came to 0.52 µM in experiment [1] and 32.2 µM in experiment [2].

Consider `CCN(CC)c1ccc(/C=N/Nc2nc(NCc3ccco3)nc(Nc3ccc(OC)cc3)n2)c(OCc2ccc(Cl)cc2Cl)c1`, for which the values for the half-inhibitory concentration (IC50) in experiment [1] and in experiment [2] were 0.0515 µM and over 100 µM, respectively.

Regarding `COc1cc(/C=C2\S/C(=N\c3ccccc3)N(Cc3ccco3)C2=O)ccc1OC(C)C(=O)O` (stereo unspecified), the half-maximal inhibitory concentration (IC50) in experiment [1] was 5.14 µM; in experiment [2] it was over 100 µM.

On to `Oc1ccc(NCc2cc(Cl)ccc2OCc2ccccc2F)cc1`, for which the IC50 came to 4.21 µM in experiment [1] and 12.2 µM in experiment [2].

`COc1ccc(-c2cc(C(=O)OCC(=O)c3cccc4ccccc34)c3ccccc3n2)cc1`: the IC50 in experiment [1] was 0.37 µM; in experiment [2] it was over 100 µM.
